# pKi: −log10 of the molar value.
# Molecular target: T1, full-length ATR (Homo sapiens, UniProt Q13535)
# T1 construct: Assays were carried out at 25° C. in the presence of 5 nM full-length ATR
# Experiment: ATR Inhibition Assay (radioactive-phosphate incorporation)
# Assay type: biochemical
# Conditions: not given
# T1 sequence (Q13535 whole entry): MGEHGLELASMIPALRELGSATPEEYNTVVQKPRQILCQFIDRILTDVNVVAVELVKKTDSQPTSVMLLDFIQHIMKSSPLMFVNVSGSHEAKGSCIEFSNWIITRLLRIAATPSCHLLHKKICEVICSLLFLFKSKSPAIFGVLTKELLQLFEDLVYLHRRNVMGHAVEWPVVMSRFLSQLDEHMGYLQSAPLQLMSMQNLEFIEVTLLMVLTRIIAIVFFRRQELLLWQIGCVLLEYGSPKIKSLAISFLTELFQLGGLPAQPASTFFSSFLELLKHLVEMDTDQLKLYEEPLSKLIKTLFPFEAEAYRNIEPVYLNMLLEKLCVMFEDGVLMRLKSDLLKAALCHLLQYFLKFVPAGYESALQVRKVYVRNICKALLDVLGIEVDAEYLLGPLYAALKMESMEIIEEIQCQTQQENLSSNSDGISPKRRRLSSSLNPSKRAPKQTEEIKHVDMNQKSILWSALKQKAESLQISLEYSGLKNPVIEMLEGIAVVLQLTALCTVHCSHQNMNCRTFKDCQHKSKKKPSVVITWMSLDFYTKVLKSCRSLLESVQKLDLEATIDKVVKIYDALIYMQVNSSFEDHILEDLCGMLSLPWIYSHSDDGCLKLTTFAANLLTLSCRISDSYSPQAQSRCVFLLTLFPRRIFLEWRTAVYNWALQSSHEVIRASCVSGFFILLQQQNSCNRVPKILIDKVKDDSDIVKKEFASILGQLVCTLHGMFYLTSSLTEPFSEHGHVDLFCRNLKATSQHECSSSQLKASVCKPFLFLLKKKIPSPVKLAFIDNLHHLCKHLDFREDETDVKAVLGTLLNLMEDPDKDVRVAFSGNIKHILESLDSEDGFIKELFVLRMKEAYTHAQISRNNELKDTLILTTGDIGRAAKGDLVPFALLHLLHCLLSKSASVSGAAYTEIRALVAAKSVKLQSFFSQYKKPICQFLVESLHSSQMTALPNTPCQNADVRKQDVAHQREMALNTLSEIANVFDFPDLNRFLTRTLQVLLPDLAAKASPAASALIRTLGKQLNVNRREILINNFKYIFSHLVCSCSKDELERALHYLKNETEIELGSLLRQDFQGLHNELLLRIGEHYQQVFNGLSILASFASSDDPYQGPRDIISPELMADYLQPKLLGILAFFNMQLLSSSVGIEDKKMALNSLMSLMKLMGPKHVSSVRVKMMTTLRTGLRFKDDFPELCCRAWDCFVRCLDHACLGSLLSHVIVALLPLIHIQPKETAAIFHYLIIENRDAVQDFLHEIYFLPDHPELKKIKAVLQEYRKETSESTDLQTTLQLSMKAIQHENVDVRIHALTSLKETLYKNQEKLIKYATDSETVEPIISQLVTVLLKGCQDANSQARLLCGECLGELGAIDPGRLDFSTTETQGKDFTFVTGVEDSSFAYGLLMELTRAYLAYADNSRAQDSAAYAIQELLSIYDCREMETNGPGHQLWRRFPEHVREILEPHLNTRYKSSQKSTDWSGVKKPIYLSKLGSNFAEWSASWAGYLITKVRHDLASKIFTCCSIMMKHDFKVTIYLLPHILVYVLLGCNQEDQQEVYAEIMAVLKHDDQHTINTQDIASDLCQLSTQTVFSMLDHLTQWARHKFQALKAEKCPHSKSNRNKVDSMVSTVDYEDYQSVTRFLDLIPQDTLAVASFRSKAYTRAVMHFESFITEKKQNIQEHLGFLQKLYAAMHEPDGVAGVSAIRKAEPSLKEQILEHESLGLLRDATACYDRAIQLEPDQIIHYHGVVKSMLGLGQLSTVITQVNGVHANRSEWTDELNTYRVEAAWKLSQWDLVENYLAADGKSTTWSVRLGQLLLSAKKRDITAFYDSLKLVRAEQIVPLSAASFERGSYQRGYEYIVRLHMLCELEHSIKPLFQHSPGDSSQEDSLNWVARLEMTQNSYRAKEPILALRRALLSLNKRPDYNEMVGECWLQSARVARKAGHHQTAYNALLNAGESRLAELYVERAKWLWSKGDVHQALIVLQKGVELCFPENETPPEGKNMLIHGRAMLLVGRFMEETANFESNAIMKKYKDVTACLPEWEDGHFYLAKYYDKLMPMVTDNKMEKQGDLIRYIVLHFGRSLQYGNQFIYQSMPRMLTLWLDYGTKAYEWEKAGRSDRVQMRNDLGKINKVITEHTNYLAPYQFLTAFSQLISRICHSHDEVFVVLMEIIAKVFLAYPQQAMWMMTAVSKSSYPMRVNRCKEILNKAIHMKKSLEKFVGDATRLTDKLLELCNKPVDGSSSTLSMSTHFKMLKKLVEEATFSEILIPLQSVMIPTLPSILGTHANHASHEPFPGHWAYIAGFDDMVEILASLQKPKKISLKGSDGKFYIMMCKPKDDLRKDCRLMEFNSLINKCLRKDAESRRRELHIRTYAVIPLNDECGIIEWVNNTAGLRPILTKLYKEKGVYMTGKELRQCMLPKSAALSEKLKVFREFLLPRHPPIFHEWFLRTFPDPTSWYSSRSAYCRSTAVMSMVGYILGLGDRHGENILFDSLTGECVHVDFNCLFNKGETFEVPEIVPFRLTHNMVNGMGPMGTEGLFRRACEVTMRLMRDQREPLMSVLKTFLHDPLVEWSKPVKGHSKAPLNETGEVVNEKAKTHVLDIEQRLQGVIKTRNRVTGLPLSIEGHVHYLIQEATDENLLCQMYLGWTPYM
row,pKi,SMILES
1,7.70 to 8.30,CN1CCN(Cc2ccc(-c3nnc(-c4nc(-c5ccnc(C(C)(C)C#N)c5)cnc4N)o3)cc2)CC1 [Compound I-100]
2,> 9.00,"CCC(C#N)c1cc(-c2cnc(N)c(-c3cc(-c4ccc(CNC)cc4)no3)n2)ccn1 (stereo not drawn) [Compound I-3, 2-[4-[5-amino-6-[3-[4-(methylaminomethyl)phenyl]isoxazol-5-yl]pyrazin-2-yl]-2-pyridyl]butanenitrile]"
3,> 9.00,CC(C)(C#N)c1cc(-c2cnc(N)c(-c3nnc(-c4cc5c(s4)CNCC5)o3)n2)ccn1 [Compound I-111]
4,> 9.00,"CC(C)(C#N)c1cc(-c2cnc(N)c(-c3cc(-c4ccc(CN[C@@H]5CCOC5)cc4)no3)n2)ccn1 [Compound I-17, 2-[4-[5-amino-6-[3-[4-[[[(3R)-tetrahydrofuran-3-yl]amino]methyl]phenyl]isoxazol-5-yl]pyrazin-2-yl]-2-pyridyl]-2-methyl-propanenitrile]"
5,> 9.00,CC(C)(C#N)c1cc(-c2cnc(N)c(-c3nnc(-c4ccc(OCCN)cc4)o3)n2)ccn1 [Compound I-112]
6,7.70 to 8.30,CC(C)(C#N)c1cc(-c2cnc(N)c(-c3nnc(-c4cccc(C5CNCCN5)c4)o3)n2)ccn1 (stereo not drawn) [Compound I-58]
7,> 9.00,"CC(C)(C#N)c1cc(-c2cnc(N)c(-c3cc(-c4ccc(CNC5COC5)cc4)no3)n2)ccn1 [Compound I-18, 2-[4-[5-amino-6-[3-[4-[(oxetan-3-ylamino)methyl]phenyl]isoxazol-5-yl]pyrazin-2-yl]-2-pyridyl]-2-methyl-propanenitrile]"
8,> 9.00,CC(C)(C#N)c1cc(-c2cnc(N)c(-c3nnc(-c4ccc(CNC5CCOCC5)cc4F)o3)n2)ccn1 [Compound I-124]
9,7.00 to 7.70,"COc1cccc(C)c1-c1cc(-c2nc(-c3ccnc(C4(C#N)CCNCC4)c3)cnc2N)on1 [Compound I-29, 4-[4-[5-amino-6-[3-(2-methoxy-6-methyl-phenyl)isoxazol-5-yl]pyrazin-2-yl]-2-pyridyl]piperidine-4-carbonitrile]"
10,> 9.00,CC(C)(C#N)c1cc(-c2cnc(N)c(-c3cc(-c4ccc(CN[C@H]5CCOC5)cc4)no3)n2)ccn1 [Compound I-97]
11,> 9.00,"CC(C)(C#N)c1cc(-c2cnc(N)c(-c3cc(-c4ccc(C5CNCCN5)cc4)no3)n2)ccn1 (stereo not drawn) [Compound I-41, 2-[4-[5-amino-6-[3-(4-piperazin-2-ylphenyl)isoxazol-5-yl]pyrazin-2-yl]-2-pyridyl]-2-methyl-propanenitrile]"
12,7.70 to 8.30,CC(C)(C#N)c1cc(-c2cnc(N)c(-c3nnc(-c4ccc(NCCN)cc4F)o3)n2)ccn1 [Compound I-75]
13,> 9.00,CC(C)(C#N)c1cc(-c2cnc(N)c(-c3nnc(-c4cccc(N5CC(N)C5)c4)o3)n2)ccn1 [Compound I-110]
14,> 9.00,CC(C)(C#N)c1cc(-c2cnc(N)c(-c3nnc(-c4ccc(NCC5CNC5)cc4)o3)n2)ccn1 [Compound I-104]
15,> 9.00,"Cc1ccsc1-c1cc(-c2nc(-c3ccnc(C(C)(C)C#N)c3)cnc2N)on1 [Compound I-8, 2-[4-[5-amino-6-[3-(3-methyl-2-thienyl)isoxazol-5-yl]pyrazin-2-yl]-2-pyridyl]-2-methyl-propanenitrile]"
16,7.70 to 8.30,CC(C)(C#N)c1nccc(-c2cnc(N)c(-c3cc(-c4ccc(CNCC5COC5)cc4)no3)n2)c1F [Compound I-139]
17,7.70 to 8.30,"CC(C)(C(=O)NCCN1CCOCC1)c1cc(-c2cnc(N)c(-c3cc(-c4ccccc4)no3)n2)ccn1 [Compound I-21, 2-[4-[5-amino-6-(3-phenylisoxazol-5-yl)pyrazin-2-yl]-2-pyridyl]-2-methyl-N-(2-morpholinoethyl)propanamide]"
18,> 9.00,"CC(C)(C#N)c1cc(-c2cnc(N)c(-c3cc(-c4ccc(CNC5CCOCC5)cc4)no3)n2)ccn1 [Compound I-53, 2-(4-(5-amino-6-(3-(4-(((tetrahydro-2H-pyran-4-yl)amino)methyl)phenyl)isoxazol-5-yl)pyrazin-2-yl)pyridin-2-yl)-2-methylpropanenitrile]"

row,pKi,SMILES
1,> 9.00,"CC(C)(C#N)c1cc(-c2cnc(N)c(-c3cc(-c4ccc(O)cc4)no3)n2)ccn1 [Compound I-51, 2-[4-[5-amino-6-[3-(4-hydroxyphenyl)isoxazol-5-yl]pyrazin-2-yl]-2-pyridyl]-2-methyl-propanenitrile]"
2,> 9.00,CN(C)CCOc1ccc(-c2nnc(-c3nc(-c4ccnc(C(C)(C)C#N)c4)cnc3N)o2)cc1 [Compound I-56]
3,> 9.00,"CC(C)(C#N)c1cc(-c2cnc(N)c(-c3cc(-c4ccc(C(N)CF)cc4)no3)n2)ccn1 (stereo not drawn) [Compound I-16, 2-[4-[5-amino-6-[3-[4-(1-amino-2-fluoro-ethyl)phenyl]isoxazol-5-yl]pyrazin-2-yl]-2-pyridyl]-2-methyl-propanenitrile]"
4,> 9.00,CN1CC(Oc2ccc(-c3nnc(-c4nc(-c5ccnc(C(C)(C)C#N)c5)cnc4N)o3)cc2)C1 [Compound I-121]
5,> 9.00,CC(C)(C#N)c1cc(-c2cnc(N)c(-c3nnc(-c4ccc(OC5CNC5)cc4)o3)n2)ccn1 [Compound I-113]
6,> 9.00,CC(C)(C#N)c1cc(-c2cnc(N)c(-c3nnc(-c4ccc(CNCC5COC5)cc4)o3)n2)ccn1 [Compound I-105]
7,> 9.00,CC(C)(C#N)c1cc(-c2cnc(N)c(-c3cc(-c4ccc(C5COCCN5)cc4)no3)n2)ccn1 (stereo not drawn) [Compound I-60]
8,7.70 to 8.30,"CC(C)(C(=O)N1CCNCC1)c1cc(-c2cnc(N)c(-c3cc(-c4ccccc4)no3)n2)ccn1 [Compound I-20, 2-[4-[5-amino-6-(3-phenylisoxazol-5-yl)pyrazin-2-yl]-2-pyridyl]-2-methyl-1-piperazin-1-yl-propan-1-one]"
9,> 9.00,Nc1ncc(-c2ccnc(CO)c2)nc1-c1cc(-c2ccc(CNC3CCOCC3)cc2)no1 [Compound I-135]
10,> 9.00,COc1ccccc1-c1nnc(-c2nc(-c3ccnc(C4(C#N)CCNCC4)c3)cnc2N)o1 [Compound I-133]
11,> 9.00,"CNCc1ccc(-c2nnc(-c3nc(-c4ccnc(C(C)(C)C#N)c4)cnc3N)o2)cc1 [Compound I-4, 2-[4-[5-amino-6-[5-[4-(methylaminomethyl)phenyl]-1,3,4-oxadiazol-2-yl]pyrazin-2-yl]-2-pyridyl]-2-methyl-propanenitrile]"
12,> 9.00,"N#CC1(c2cc(-c3cnc(N)c(-c4cc(-c5ccc(CN[C@H]6CCOC6)cc5)no4)n3)ccn2)CC1 [Compound I-34, 1-[4-[5-amino-6-[3-[4-[[[(3S)-tetrahydrofuran-3-yl]amino]methyl]phenyl]isoxazol-5-yl]pyrazin-2-yl]-2-pyridyl]cyclopropanecarbonitrile]"
13,> 9.00,CNCCN(C)c1ccc(-c2nnc(-c3nc(-c4ccnc(C(C)(C)C#N)c4)cnc3N)o2)cc1 [Compound I-78]
14,> 9.00,CC(C)(C(=O)NCCN)c1cc(-c2cnc(N)c(-c3cc(-c4ccccc4)no3)n2)ccn1 [Compound I-63]
15,> 9.00,CC(C)(C#N)c1cc(-c2cnc(N)c(-c3nnc(-c4cccc(N5CC[C@H](N)C5)c4)o3)n2)ccn1 [Compound I-90]
16,> 9.00,CN(C)CCNc1cc(F)ccc1-c1nnc(-c2nc(-c3ccnc(C(C)(C)C#N)c3)cnc2N)o1 [Compound I-108]
17,> 9.00,CC(C)(C#N)c1cc(-c2cnc(N)c(-c3nnc(-c4cccc(CCN)c4)o3)n2)ccn1 [Compound I-66]

row,SMILES,pKi
1,N#CC1(c2cc(-c3cnc(N)c(-c4cc(-c5ccccc5)no4)n3)ccn2)CN2CCC1CC2 (stereo not drawn) [Compound I-74],> 9.00

# Same assay, conditions: Ki(app); 5 nM full-length ATR, 10 μM [γ-33P]ATP, 800 μM target peptide, 25° C.
row,SMILES,ATR Ki
1,CN1CCN(c2ccc(-c3nnc(-c4nc(-c5ccnc(C(C)(C)C#N)c5)cnc4N)o3)cc2)CC1 [Compound I-86],+++ (Compounds with a Ki value >5 nM but ≦1 nM are marked with “+++.”)
2,"N#CC1(c2cc(-c3cnc(N)c(-c4cc(-c5ccc(O)cc5)no4)n3)ccn2)CCNCC1 [Compound I-32, 4-[4-[5-amino-6-[3-(4-hydroxyphenyl)isoxazol-5-yl]pyrazin-2-yl]-2-pyridyl]piperidine-4-carbonitrile]",+++ (Compounds with a Ki value >5 nM but ≦1 nM are marked with “+++.”)
3,CCOC(=O)C(C)(C)c1cc(-c2cnc(N)c(-c3cc(-c4ccccc4)no3)n2)ccn1 [Compound I-115],+++ (Compounds with a Ki value >5 nM but ≦1 nM are marked with “+++.”)
4,CC(C)(C#N)c1cc(-c2cnc(N)c(-c3nnc(-c4ccc(F)cc4F)o3)n2)ccn1 [Compound I-134],+++ (Compounds with a Ki value >5 nM but ≦1 nM are marked with “+++.”)
5,CC(C)(C#N)c1cc(-c2cnc(N)c(-c3nnc(-c4cccc(C5CNC5)c4)o3)n2)ccn1 [Compound I-95],+++ (Compounds with a Ki value >5 nM but ≦1 nM are marked with “+++.”)
6,"CC(C)(C(=O)NCCCN)c1cc(-c2cnc(N)c(-c3cc(-c4ccccc4)no3)n2)ccn1 [Compound I-40, 2-[4-[5-amino-6-(3-phenylisoxazol-5-yl)pyrazin-2-yl]-2-pyridyl]-N-(3-aminopropyl)-2-methyl-propanamide]",+++ (Compounds with a Ki value >5 nM but ≦1 nM are marked with “+++.”)
7,CN(CCN)c1ccc(-c2nnc(-c3nc(-c4ccnc(C(C)(C)C#N)c4)cnc3N)o2)cc1 [Compound I-72],+++ (Compounds with a Ki value >5 nM but ≦1 nM are marked with “+++.”)
8,CC(C)(C#N)c1cc(-c2cnc(N)c(-c3nnc(-c4ccc(C5=NCCN5)cc4)o3)n2)ccn1 [Compound I-129],+++ (Compounds with a Ki value >5 nM but ≦1 nM are marked with “+++.”)
9,CC(C)(C#N)c1cc(-c2cnc(N)c(-c3nnc(-c4ccc(N5CCC(N)CC5)cc4)o3)n2)ccn1 [Compound I-76],+++ (Compounds with a Ki value >5 nM but ≦1 nM are marked with “+++.”)
10,CC(C)(C#N)c1cc(-c2cnc(N)c(-c3nnc(-c4ccc(C5CCNCC5)cc4)o3)n2)ccn1 [Compound I-109],+++ (Compounds with a Ki value >5 nM but ≦1 nM are marked with “+++.”)
11,CCCN(CCOC)C(=O)c1cc(-c2cnc(N)c(-c3cc(-c4ccccc4)no3)n2)ccn1 [Compound I-132],+++ (Compounds with a Ki value >5 nM but ≦1 nM are marked with “+++.”)
12,"N#CC1(c2cc(-c3cnc(N)c(-c4cc(-c5ccc6[nH]ccc6c5)no4)n3)ccn2)CCNCC1 [Compound I-33, 4-[4-[5-amino-6-[3-(1H-indol-5-yl)isoxazol-5-yl]pyrazin-2-yl]-2-pyridyl]piperidine-4-carbonitrile]",+++ (Compounds with a Ki value >5 nM but ≦1 nM are marked with “+++.”)

# — patent US8877759B2, “Aminopyrazines as ATR kinase inhibitors” (Vertex Pharnaceuticals Incorporated, priority 2011, dated 2014)
